Laboratory results taken from patent US10022315B2, “Oral composition for reinforcing skin tolerance following topical administration of a retinoid compound” (NUTRICOS TECHNOLOGIES, priority 2012, dated 2018).

Key:
Type in all cases: in vivo, human
menopausal women [1] = assay: Clinical study: evaluation by dermatologists of skin signs associated with the side effects of retinoic acid (score 0-9, on the face); conditions: scale 0-9, face
Method: (§1) The beneficial effect, in terms of reinforcing skin tolerance, of the food supplement of example 1 was assessed in a clinical study carried out according to the protocol which follows:
(§2) The study performed under dermatological control (30 dermatologists) was carried out in menopausal women (n=203), from 50 to 66 years old and showing moderate signs of photo-aging on the face.
(§3) These women were divided up into two treatment groups: • group 1 treated with 0.05% by weight retinoic acid, relative to the total weight of the composition, for 6 months at a rate of one application per day (control group), • group 2 treated with 0.05% by weight retinoic acid, relative to the total weight of the composition, for 6 months at a rate of one application per day, combined with daily intake of the food supplement as described in example 1. 3.1 Evaluation of Symptoms
(§4) The symptoms associated with skin tolerance were evaluated after 60, 120 and 180 days by, on the one hand, dermatologists and, on the other hand, by the subjects themselves.
Dermatologist Scoring Scale

menopausal women [2] = assay: Clinical study: evaluation by the patients of skin signs associated with the side effects of retinoic acid (none/mild/moderate/severe, on the face)
Method: as §1, §2, §3, §4
During the last 2 months, have you experienced on the face

menopausal women [3] = assay: Clinical study: overall evaluation of skin tolerance to the treatments by the dermatologists (questionnaire)
Method: as §1, §2, §3
(§5) Skin tolerance to the treatments was checked after 60, 120 and 180 days by means of questionnaires given to the dermatologists and the subjects participating in the study.
(§6) Tables 1 (evaluations by the dermatologists) and 2 (self-evaluation by the subjects) summarize the skin tolerance results obtained in groups 1 and 2. The results are expressed as of subjects, in reply to the following question: “do you consider thus far that the tolerance to the treatment is”. The possible replies were excellent, good, average and poor.

menopausal women [4] = assay: Clinical study: overall evaluation of skin tolerance to the treatments by the subjects (questionnaire)
Method: as §1, §2, §3, §5, §6

## CC1=C(/C=C/C(C)=C/C=C/C(C)=C/C(=O)O)C(C)(C)CCC1 [GROUP 1, retinoic acid]
Menopausal women [1]; D0
  Pruritus, mean score (dermatologists): 0.6
  Sign of desquamation, mean score (dermatologists): 1.6
  Sign of redness, mean score (dermatologists): 1.2
  Sign of skin dryness, mean score (dermatologists): 3.2
Menopausal women [1]; D60
  Pruritus, mean score (dermatologists): 1.2
  Sign of desquamation, mean score (dermatologists): 1.8
  Sign of redness, mean score (dermatologists): 1.6
  Sign of skin dryness, mean score (dermatologists): 2.7
Menopausal women [1]; D120
  Pruritus, mean score (dermatologists): 0.9
  Sign of desquamation, mean score (dermatologists): 1.5
  Sign of redness, mean score (dermatologists): 1.3
  Sign of skin dryness, mean score (dermatologists): 2.2
Menopausal women [1]; D180
  Pruritus, mean score (dermatologists): 0.6
  Sign of desquamation, mean score (dermatologists): 1.1
  Sign of redness, mean score (dermatologists): 1.0
  Sign of skin dryness, mean score (dermatologists): 1.7
Menopausal women [2]; D60
  Desquamation, patients replying mild (Mi): 41%
  Desquamation, patients replying moderate (Mo): 21%
  Desquamation, patients replying severe (S): 1%
  Redness, patients replying mild (Mi): 46%
  Redness, patients replying moderate (Mo): 13%
  Redness, patients replying severe (S): 0%
  Signs of discomfort, patients replying mild (Mi): 42%
  Signs of discomfort, patients replying moderate (Mo): 15%
  Signs of discomfort, patients replying severe (S): 0%
  Tautness, patients replying mild (Mi): 49%
  Tautness, patients replying moderate (Mo): 10%
  Tautness, patients replying severe (S): 1%
Menopausal women [2]; D120
  Desquamation, patients replying mild (Mi): 42%
  Desquamation, patients replying moderate (Mo): 14%
  Desquamation, patients replying severe (S): 0%
  Itching, patients replying mild (Mi): 42%
  Itching, patients replying moderate (Mo): 7%
  Itching, patients replying severe (S): 0%
  Redness, patients replying mild (Mi): 49%
  Redness, patients replying moderate (Mo): 7%
  Redness, patients replying severe (S): 1%
  Signs of discomfort, patients replying mild (Mi): 35%
  Signs of discomfort, patients replying moderate (Mo): 13%
  Signs of discomfort, patients replying severe (S): 0%
  Tautness, patients replying mild (Mi): 43%
  Tautness, patients replying moderate (Mo): 8%
  Tautness, patients replying severe (S): 0%
Menopausal women [2]; D180
  Desquamation, patients replying mild (Mi): 35%
  Desquamation, patients replying moderate (Mo): 8%
  Desquamation, patients replying severe (S): 0%
  Itching, patients replying mild (Mi): 35%
  Itching, patients replying moderate (Mo): 4%
  Itching, patients replying severe (S): 0%
  Redness, patients replying mild (Mi): 35%
  Redness, patients replying moderate (Mo): 6%
  Redness, patients replying severe (S): 0%
  Signs of discomfort, patients replying mild (Mi): 31%
  Signs of discomfort, patients replying moderate (Mo): 7%
  Signs of discomfort, patients replying severe (S): 0%
  Tautness, patients replying mild (Mi): 35%
  Tautness, patients replying moderate (Mo): 7%
  Tautness, patients replying severe (S): 1%
Menopausal women [2]; J60 (D60)
  Itching, patients replying mild (Mi): 48%
  Itching, patients replying moderate (Mo): 15%
  Itching, patients replying severe (S): 0%
Menopausal women [3]; D60
  Tolerance to the treatment judged Average by the dermatologists, subjects: 24%
  Tolerance to the treatment judged Excellent by the dermatologists, subjects: 15%
  Tolerance to the treatment judged Good by the dermatologists, subjects: 62%
  Tolerance to the treatment judged Poor by the dermatologists, subjects: 0%
Menopausal women [3]; D120
  Tolerance to the treatment judged Average by the dermatologists, subjects: 23%
  Tolerance to the treatment judged Excellent by the dermatologists, subjects: 20%
  Tolerance to the treatment judged Good by the dermatologists, subjects: 58%
  Tolerance to the treatment judged Poor by the dermatologists, subjects: 0%
Menopausal women [3]; D180
  Tolerance to the treatment judged Average by the dermatologists, subjects: 15%
  Tolerance to the treatment judged Excellent by the dermatologists, subjects: 23%
  Tolerance to the treatment judged Good by the dermatologists, subjects: 63%
  Tolerance to the treatment judged Poor by the dermatologists, subjects: 0%
Menopausal women [4]; D60
  Tolerance to the treatment judged Average by the subjects, subjects: 20%
  Tolerance to the treatment judged Excellent by the subjects, subjects: 18%
  Tolerance to the treatment judged Good by the subjects, subjects: 63%
  Tolerance to the treatment judged Poor by the subjects, subjects: 0%
Menopausal women [4]; D120
  Tolerance to the treatment judged Average by the subjects, subjects: 21%
  Tolerance to the treatment judged Excellent by the subjects, subjects: 25%
  Tolerance to the treatment judged Good by the subjects, subjects: 54%
  Tolerance to the treatment judged Poor by the subjects, subjects: 1%
Menopausal women [4]; D180
  Tolerance to the treatment judged Average by the subjects, subjects: 15%
  Tolerance to the treatment judged Excellent by the subjects, subjects: 30%
  Tolerance to the treatment judged Good by the subjects, subjects: 53%
  Tolerance to the treatment judged Poor by the subjects, subjects: 2%
